Patent publication US7517874B2 (priority 2007, dated 2009)
pEC50: −log10 of the molar value.

Experiments:
[1] = target: human CB1 receptor (hCB1) (Homo sapiens, UniProt P21554); test: cell-based; assay type: cell-based
Summary of the method: (§1)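 First, cells in IBMX-containing HEPES-buffered HBSS are raised to elevated cAMP with 2-8 μM NKH-477 for 30 min. Data are normalised to the forskolin and forskolin + 1 μM CP55,940 controls.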

rat CB2 receptor (rCB2) = target: T1, rat CB2 receptor (rCB2) (Rattus norvegicus, UniProt Q9QZN9); test: cell-based; assay type: cell-based; details: agonist or inverse agonist at rCB2
T1 sequence (Q9QZN9 1-360): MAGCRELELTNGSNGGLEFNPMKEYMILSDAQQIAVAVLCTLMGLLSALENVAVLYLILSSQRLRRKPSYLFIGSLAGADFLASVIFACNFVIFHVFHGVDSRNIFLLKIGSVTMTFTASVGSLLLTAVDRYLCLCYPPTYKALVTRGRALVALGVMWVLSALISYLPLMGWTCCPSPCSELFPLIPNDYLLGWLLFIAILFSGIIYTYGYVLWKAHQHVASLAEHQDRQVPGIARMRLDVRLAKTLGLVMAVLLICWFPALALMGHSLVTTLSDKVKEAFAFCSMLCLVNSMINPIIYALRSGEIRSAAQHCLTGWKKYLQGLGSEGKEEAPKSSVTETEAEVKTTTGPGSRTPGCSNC
Summary of the method: as §1

Male Sprague-Dawley rats = test: Complete Freund's Adjuvant (CFA) model of inflammatory pain, Randall-Selitto paw pressure; assay type: in vivo; details: rat, intraperitoneal
Experimental: Male Sprague-Dawley rats (Hsd:Sprague-Dawley®™SD®™, Harlan, Indianapolis, Ind.) weighing 201±1 grams, were housed three per cage. Animals had free access to food and water and were maintained on a twelve hour light/dark schedule for the entire duration of the experiment. Approximately 12 hours prior to behavioral testing, animals were placed on wire mesh bottom cages with free access to water but no access to food. Test compounds were prepared in 50% PEG-400 (Sigma-Aldrich, cat. P3265). Indomethacin (Fluka, cat 57413) was suspended in 0.5% methylcellulose (Sigma-Aldrich, cat. 274429). Groups of eight animals were anesthetized with 2-3% isoflurane and local inflammation induced by 50 μl CFA (Sigma-Aldrich, cat F5881, Mycobacterium tuberculosis 1 mg/ml) injected subcutaneously into the plantar surface of the left paw.
Assessment of mechanical hyperalgesia: Baseline and post-treatment withdrawal thresholds to a noxious mechanical stimulus were measured using the Randall-Selitto paw pressure apparatus (Ugo Basile Analgesymeter, model 7200). […] Mechanical hyperalgesia was measured using the Randall-Selitto paw pressure device before CFA injection and after intraperitoneal (i.p.) compound administration over a twenty-four-hour period. The mean and standard error of the mean (SEM) were determined for the injured and normal paws for each treatment group.

rats = test: Spinal nerve ligation (SNL) model of neuropathic pain; assay type: in vivo; details: rat, oral 3, 10 and 30 mg/kg, FIG. 4
Experimental: The SNL model (Kim and Chung 1992) was used to induce chronic neuropathic pain in rats. The rats were anesthetized with isoflurane, the left L5 transverse process was removed, and the L5 and L6 spinal nerves were tightly ligated with 6-0 silk suture. The wound was then closed with internal sutures and external staples. Following at least seven days post SNL, baseline, post-injury and post-treatment values for non-noxious mechanical sensitivity were evaluated using eight Semmes-Weinstein filaments (Stoelting, Wood Dale, Ill., USA) with varying stiffness (0.4, 0.7, 1.2, 2.0, 3.6, 5.5, 8.5, and 15 g) according to the up-down method (Chaplan et al. 1994). Animals were placed on a perforated metallic platform and allowed to acclimate to their surroundings for a minimum of thirty minutes before testing. The mean and standard error of the mean (SEM) were determined for the injured paw in each treatment group. Since this stimulus is normally not considered painful, significant injury-induced increases in responsiveness in this test are interpreted as a measure of mechanical allodynia. The dose which elicited 50% attenuation of mechanical hypersensitivity (ED50) was determined using linear regression analysis. Results obtained after oral administration of compound 317 at 3, 10 and 30 mg/kg and with compound 366 at 1, 3 and 10 mg/kg are shown in FIG. 4.

Sequence of human CB1 receptor (hCB1) (P21554 whole entry): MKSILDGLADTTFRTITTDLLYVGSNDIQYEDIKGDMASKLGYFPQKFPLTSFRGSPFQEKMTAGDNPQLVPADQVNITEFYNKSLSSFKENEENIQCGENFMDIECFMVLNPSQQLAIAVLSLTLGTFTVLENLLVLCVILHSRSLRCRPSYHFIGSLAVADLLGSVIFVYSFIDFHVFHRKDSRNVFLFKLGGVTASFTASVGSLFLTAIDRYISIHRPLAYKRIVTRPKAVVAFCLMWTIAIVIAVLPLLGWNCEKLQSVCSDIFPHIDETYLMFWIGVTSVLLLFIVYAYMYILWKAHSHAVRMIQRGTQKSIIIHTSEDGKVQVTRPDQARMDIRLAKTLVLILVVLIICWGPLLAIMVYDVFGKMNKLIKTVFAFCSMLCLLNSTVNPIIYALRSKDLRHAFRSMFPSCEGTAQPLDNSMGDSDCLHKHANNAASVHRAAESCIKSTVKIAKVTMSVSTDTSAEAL

Structure (SMILES) | pEC50 [1] | +/− RCB2 (rat CB2 receptor (rCB2)) | side effects during the experiment (Male Sprague-Dawley rats) | +/− HCB1 ([1]; agonist or inverse agonist at hCB1) | effect in the neuropathic pain model (rats)
CCS(=O)(=O)N1CCn2c(-c3ccccc3)nc(C(=O)N[C@H](C(=O)NC)C(C)(C)C)c2C1 [Compound 91, (S)-N-(3,3-dimethyl-1-(methylamino)-1-oxobutan-2-yl)-7-(ethylsulfonyl)-3-phenyl-5,6,7,8-tetrahydroimidazo[1,5-a]pyrazine-1-carboxamide] | < 5.00 | − | No side effects were observed |  | 
CNC(=O)[C@@H](NC(=O)c1nc(-c2ccc(Cl)cc2F)n2c1CN(C)CCC2)C(C)(C)C [Compound 366, (S)-3-(4-chloro-2-fluorophenyl)-N-(3,3-dimethyl-1-(methylamino)-1-oxobutan-2-yl)-8-methyl-6,7,8,9-tetrahydro-5H-imidazo[1,5-a][1,4]diazepine-1-carboxamide] |  | + |  | + | dose response in the neuropathic pain model
